# Experimental data as given in patent US4069317A, “N^2 -Arylsulfonyl-L-argininamides and the pharmaceutically acceptable salts thereof” (Mitsubishi Chemical Industries Ltd., priority 1974, dated 1978).
# Target: T1, thrombin (Bos taurus, UniProt P00735)
# T1 construct: purchased Mochida Pharmaceutical Co., Ltd
# Experiment: fibrinogen coagulation time
# Assay type: biochemical
# Details: bovine fibrinogen, thrombin 5 units/ml, borate saline buffer pH 7.4, 25° C; control coagulation time 50-55 seconds
# Protocol: The measurement of the fibrinogen coagulation time was conducted as follows:
# Immediately after mixing, the reaction mixture was transferred from the ice bath to a bath maintained at 25° C. Coagulation times were taken as the period between the time of transference to the 25° C bath and the time of the first appearance of fibrin threads.
# The term "concentration required to prolong the coagulation time by a factor of two" is the concentration of an active ingredient required to prolong the normal coagulation time 50-55 seconds to 100-110 seconds.
row,Structure (SMILES),Concentration required to prolong the coagulation time by a factor of two [µM]
1,"COCCN(C(=O)[C@H](CCCNC(=N)N)NS(=O)(=O)c1ccc2cc(OC)c(OC)cc2c1)[C@@H](C)C(=O)O [Sample 15, N^2-(6,7-dimethoxy-2-naphthylsulfonyl)-L-arginyl-N-(2-methoxyethyl)alanine]",5
2,"COc1cc2ccc(S(=O)(=O)N[C@@H](CCCNC(=N)N)C(=O)N(CCc3ccccc3)[C@@H](C)C(=O)O)cc2cc1OC [Sample 8, N^2-(6,7-dimethoxy-2-naphthylsulfonyl)-L-arginyl-N-phenethylalanine]",1.5
3,"COc1ccc2ccc(S(=O)(=O)N[C@@H](CCCNC(=N)N)C(=O)N(C)[C@@H](Cc3ccccc3)C(=O)O)cc2c1 [Sample 20, N^2-(7-methoxy-2-naphthylsulfonyl)-L-arginyl-N-methylphenylalanine]",2.5
4,"COc1cc2ccc(S(=O)(=O)N[C@@H](CCCNC(=N)N)C(=O)N(C)[C@@H](Cc3ccccc3)C(=O)O)cc2cc1OC [Sample 18, N^2-(6,7-dimethoxy-2-naphthylsulfonyl)-L-arginyl-N-methylphenylalanine]",2
5,"COc1cc2ccc(S(=O)(=O)N[C@@H](CCCNC(=N)N)C(=O)N(Cc3ccccc3)[C@@H](C)C(=O)O)cc2cc1OC [Sample 6, N^2-(6,7-dimethoxy-2-naphthylsulfonyl)-L-arginyl-N-benzylalanine]",2.5
6,"CCC[C@H](NC(=O)[C@H](CCCNC(=N)N)NS(=O)(=O)c1ccc2cc(OC)c(OC)cc2c1)C(=O)O [Sample 21, N^2-(6,7-dimethoxy-2-naphthylsulfonyl)-L-arginylnorvaline]",15
7,"COc1ccc2cc(S(=O)(=O)N[C@@H](CCCNC(=N)N)C(=O)N(CC3CCCCC3)[C@@H](C)C(=O)O)cc(OC)c2c1 [Sample 12, N^2-(4,6-dimethoxy-2-naphthylsulfonyl)-L-arginyl-N-cyclohexylmethylalanine]",4.5
8,"CCCCCN(C(=O)[C@H](CCCNC(=N)N)NS(=O)(=O)c1ccc2cc(OC)c(OC)cc2c1)[C@@H](C)C(=O)O [Sample 4, N^2-(6,7-dimethoxy-2-naphthylsulfonyl)-L-arginyl-N-pentylalanine]",2.0

# System: mice
# Experiment: acute toxicity (LD50), intraperitoneal administration in mice
# Assay type: in vivo
# Details: mice (male, 20 g)
# Excerpt: Representative LD50 values, for example, for N^2 -(6,7-dimethoxy-2-naphthylsulfonyl)-L-arginyl-N-butylalanine and N^2 -(4,6-dimethoxy-2-naphthylsulfonyl)-L-arginyl-N-cyclohexylmethylalanine are above 1,500 milligrams per kilogram each.
row,Structure (SMILES),acute toxicity LD50
1,"CCCCNC(=O)[C@H](CCCNC(=N)N)NS(=O)(=O)c1cccc2c(N(C)C)cccc12 [N^2 -dansyl-N-butyl-L-argininamide, reference compound]",75 milligrams per kilogram
2,"CCCCN(C(=O)[C@H](CCCNC(=N)N)NS(=O)(=O)c1ccc2cc(OC)c(OC)cc2c1)[C@@H](C)C(=O)O [Sample 2, N^2-(6,7-dimethoxy-2-naphthylsulfonyl)-L-arginyl-N-butylalanine]","above 1,500 milligrams per kilogram"
3,"CCCCN(C)C(=O)[C@H](CCCNC(=N)N)NS(=O)(=O)c1cccc2c(N(C)C)cccc12 [N^2 -dansyl-N-methyl-N-butyl-L-argininamide, reference compound]",70 milligrams per kilogram
4,"COc1ccc2cc(S(=O)(=O)N[C@@H](CCCNC(=N)N)C(=O)N(CC3CCCCC3)[C@@H](C)C(=O)O)cc(OC)c2c1 [Sample 12, N^2-(4,6-dimethoxy-2-naphthylsulfonyl)-L-arginyl-N-cyclohexylmethylalanine]","above 1,500 milligrams per kilogram"
